What was measured:
Tubulin (Bos taurus) = Tubulin (Bos taurus) (UniProt Q6B856+Q862L2+Q862F3); conditions: at 1 µM
Histone deacetylase 7 = biological target: T1, Histone deacetylase 7 (Homo sapiens, UniProt Q8WUI4); test: Inhibition of human HDAC7 using fluorogenic p53 (379-382) peptide RHKK(Ac) as substrate by fluorescence assay
T1 sequence (Q8WUI4 whole entry): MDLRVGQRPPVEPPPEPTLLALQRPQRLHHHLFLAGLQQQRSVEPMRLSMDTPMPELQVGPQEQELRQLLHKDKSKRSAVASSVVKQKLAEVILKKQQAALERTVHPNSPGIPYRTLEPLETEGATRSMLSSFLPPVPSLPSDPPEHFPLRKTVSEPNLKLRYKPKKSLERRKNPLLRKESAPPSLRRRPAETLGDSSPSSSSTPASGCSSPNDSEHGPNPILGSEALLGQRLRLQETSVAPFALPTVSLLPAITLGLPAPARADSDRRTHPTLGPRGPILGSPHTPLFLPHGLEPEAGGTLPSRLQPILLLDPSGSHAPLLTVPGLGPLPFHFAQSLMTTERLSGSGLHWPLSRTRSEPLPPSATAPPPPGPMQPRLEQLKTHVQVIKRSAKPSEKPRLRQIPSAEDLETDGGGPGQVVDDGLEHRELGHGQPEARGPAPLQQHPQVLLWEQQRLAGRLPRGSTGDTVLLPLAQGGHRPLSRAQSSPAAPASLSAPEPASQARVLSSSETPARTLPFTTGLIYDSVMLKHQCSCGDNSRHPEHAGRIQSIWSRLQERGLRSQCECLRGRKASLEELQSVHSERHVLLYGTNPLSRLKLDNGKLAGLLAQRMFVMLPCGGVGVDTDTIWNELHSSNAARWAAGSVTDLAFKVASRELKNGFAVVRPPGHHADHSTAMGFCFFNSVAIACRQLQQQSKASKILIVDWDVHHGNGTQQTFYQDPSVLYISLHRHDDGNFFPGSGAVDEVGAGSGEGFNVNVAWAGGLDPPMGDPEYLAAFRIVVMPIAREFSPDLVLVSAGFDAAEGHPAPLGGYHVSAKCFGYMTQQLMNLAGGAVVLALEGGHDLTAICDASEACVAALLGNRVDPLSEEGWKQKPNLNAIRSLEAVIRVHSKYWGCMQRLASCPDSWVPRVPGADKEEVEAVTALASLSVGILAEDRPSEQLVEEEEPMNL

[1] = Growth inhibition of human KB-S15 cells after 48 hrs by SRB assay; assay type: functional; conditions: KB-S15, 48 h
KB = test: Growth inhibition of human KB cells after 48 hrs by SRB assay; assay type: functional, cell-based
[2] = Growth inhibition of human KB-VIN10 cells after 48 hrs by SRB assay; assay type: functional; conditions: KB-VIN10, 48 h
MKN-45 = test: Growth inhibition of human MKN45 cells after 48 hrs by SRB assay; assay type: functional, cell-based; conditions: MKN-45, 48 h
Histone deacetylase 1 = Histone deacetylase 1 (Homo sapiens, UniProt Q13547); test: Inhibition of human HDAC1 using RHKKAc as substrate by fluorescence assay
Histone deacetylase 1, sequence (Q13547 whole entry): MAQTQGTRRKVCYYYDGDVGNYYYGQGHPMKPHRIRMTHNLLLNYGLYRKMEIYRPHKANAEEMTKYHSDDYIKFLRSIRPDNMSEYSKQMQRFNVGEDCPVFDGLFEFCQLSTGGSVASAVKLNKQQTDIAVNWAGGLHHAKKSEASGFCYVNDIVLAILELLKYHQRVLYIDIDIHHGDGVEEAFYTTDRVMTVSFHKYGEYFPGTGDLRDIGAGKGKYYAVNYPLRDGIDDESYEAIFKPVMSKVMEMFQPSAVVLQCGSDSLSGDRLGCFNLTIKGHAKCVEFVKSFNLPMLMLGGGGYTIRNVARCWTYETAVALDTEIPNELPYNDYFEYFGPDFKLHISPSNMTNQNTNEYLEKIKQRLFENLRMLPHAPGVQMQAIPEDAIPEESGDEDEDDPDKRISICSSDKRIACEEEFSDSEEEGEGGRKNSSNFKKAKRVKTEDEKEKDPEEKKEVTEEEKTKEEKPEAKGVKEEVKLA

Histone deacetylase 4 = Histone deacetylase 4 (Homo sapiens, UniProt P56524); test: Inhibition of human HDAC4 using fluorogenic p53-derived peptide RHKK(Ac) as substrate by fluorescence assay
Histone deacetylase 4, sequence (P56524 whole entry): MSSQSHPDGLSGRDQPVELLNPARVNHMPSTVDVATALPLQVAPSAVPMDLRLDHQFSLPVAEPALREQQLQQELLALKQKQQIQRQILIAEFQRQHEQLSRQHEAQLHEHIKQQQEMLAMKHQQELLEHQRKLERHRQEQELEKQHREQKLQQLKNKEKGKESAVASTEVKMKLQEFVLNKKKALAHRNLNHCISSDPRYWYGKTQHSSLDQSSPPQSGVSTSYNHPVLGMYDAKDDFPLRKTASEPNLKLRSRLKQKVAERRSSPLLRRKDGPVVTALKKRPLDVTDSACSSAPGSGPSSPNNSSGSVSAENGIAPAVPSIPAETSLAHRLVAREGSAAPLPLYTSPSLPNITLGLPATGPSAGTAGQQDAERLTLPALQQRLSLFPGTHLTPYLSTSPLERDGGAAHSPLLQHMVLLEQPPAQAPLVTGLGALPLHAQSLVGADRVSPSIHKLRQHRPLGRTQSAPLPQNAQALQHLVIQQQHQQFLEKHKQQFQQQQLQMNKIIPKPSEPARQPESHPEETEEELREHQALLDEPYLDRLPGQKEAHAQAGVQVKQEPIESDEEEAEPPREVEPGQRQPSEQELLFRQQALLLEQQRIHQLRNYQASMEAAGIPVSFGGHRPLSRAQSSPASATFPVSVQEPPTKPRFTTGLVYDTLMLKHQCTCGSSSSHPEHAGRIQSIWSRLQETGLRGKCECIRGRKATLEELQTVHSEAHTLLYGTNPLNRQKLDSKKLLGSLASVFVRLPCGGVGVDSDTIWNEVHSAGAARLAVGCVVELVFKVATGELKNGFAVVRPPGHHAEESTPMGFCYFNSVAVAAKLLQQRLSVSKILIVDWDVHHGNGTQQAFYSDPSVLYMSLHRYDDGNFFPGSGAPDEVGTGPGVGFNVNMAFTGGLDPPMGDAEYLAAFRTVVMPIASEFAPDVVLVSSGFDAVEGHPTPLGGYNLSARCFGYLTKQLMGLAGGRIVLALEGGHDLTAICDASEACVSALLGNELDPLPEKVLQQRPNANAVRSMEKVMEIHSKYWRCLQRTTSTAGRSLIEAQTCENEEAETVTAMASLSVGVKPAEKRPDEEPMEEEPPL

[3] = biological target: T2, Polyamine deacetylase HDAC10 (Homo sapiens, UniProt Q969S8); test: Inhibition of human HDAC10 using RHKKAc as substrate by fluorescence assay; conditions: read-out: IC50
T2 sequence (Q969S8 whole entry): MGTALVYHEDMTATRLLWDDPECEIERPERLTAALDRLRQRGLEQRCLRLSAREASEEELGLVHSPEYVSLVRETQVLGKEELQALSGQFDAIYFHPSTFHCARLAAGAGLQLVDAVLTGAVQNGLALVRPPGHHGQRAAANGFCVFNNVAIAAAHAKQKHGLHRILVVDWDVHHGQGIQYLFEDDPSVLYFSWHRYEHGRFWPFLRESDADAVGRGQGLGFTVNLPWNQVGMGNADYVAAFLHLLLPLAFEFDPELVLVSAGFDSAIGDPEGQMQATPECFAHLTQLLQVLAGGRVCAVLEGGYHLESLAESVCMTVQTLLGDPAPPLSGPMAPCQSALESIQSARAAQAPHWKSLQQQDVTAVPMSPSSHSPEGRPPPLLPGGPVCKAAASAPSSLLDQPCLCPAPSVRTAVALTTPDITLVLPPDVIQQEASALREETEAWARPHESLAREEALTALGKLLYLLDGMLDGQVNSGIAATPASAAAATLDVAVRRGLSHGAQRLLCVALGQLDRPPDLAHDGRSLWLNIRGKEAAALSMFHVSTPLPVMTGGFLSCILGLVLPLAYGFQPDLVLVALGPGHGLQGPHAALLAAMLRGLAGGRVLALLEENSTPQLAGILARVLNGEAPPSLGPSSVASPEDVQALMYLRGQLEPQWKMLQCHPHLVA

In the case of `COc1ccc(S(=O)(=O)N2CCc3cccc(NCc4ccc(C(=O)Nc5ccccc5N)cc4)c32)cc1`, the inhibition (Tubulin (Bos taurus)) is reported as 69.9%, the IC50 (Histone deacetylase 7) is reported as “Not Active” and the IC50 [1] is reported as 43.9 nM. For the same molecule, the IC50 (KB) was 49 nM, the IC50 [2] was 64.7 nM and the IC50 (MKN-45) was 63 nM. The IC50 (Histone deacetylase 1) was 221 nM, the IC50 (Histone deacetylase 4) was “Not Active” and the IC50 [3] was 10000 nM.

Source: ChEMBL document CHEMBL4382249, “1-Arylsulfonyl indoline-benzamides as a new antitubulin agents, with inhibition of histone deacetylase” (Eur J Med Chem, 2019)
